Measured values: PubChem BioAssay AID1259418 (Broad Institute, 2018)
Values joined by “and” are separate entries in the source; they are usually repeats but may differ in a detail not shown here. Equal values may be shown once. Inconclusive results are not listed. Active and inactive are the calls of the source.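 The calls were made as follows: active = fitted half-maximal concentration of signal decrease at or below twice the sample's top tested concentration; inconclusive = flat curve between -70 and -30 percent, or poor fit; inactive = flat within 30 percent, signal rise, or potency above limit.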

Molecular target: T. gondii ME49Luc in IFN-y HeLa, luciferase, 72 h
Assay: T. gondii growth inhibition with IFN-gamma, dose response, cell-based, ME49Luc, HeLa, luciferase, 72 h (AID 1259418)

| Compound | AC50 |
| --- | --- |
| N#Cc1cccc(-c2ccc3c(c2)[C@@H]2[C@@H](CCN2S(=O)(=O)c2ccc(F)cc2)[C@@H](CO)N3)c1 | 15.7 µM |
| COc1ccccc1-c1nc(CN(c2ccc(C)cc2)S(=O)(=O)c2cccs2)c(C)o1 | 30.4 µM |
| COC(=O)C[C@H]1CC[C@@H]2[C@H](COc3ccc(NC(=O)Nc4cccc(C#N)c4)cc3C(=O)N2C)O1 | 19.5 µM |
| CC(C)CC#Cc1ccc([C@H]2[C@H]3CN(C(=O)c4cccc(F)c4)CC(=O)N3[C@H]2CO)cc1 | 20.3 µM |
| Cc1ccc(OCC(=O)Nc2ccc(-c3nc(-c4ccccc4)co3)cc2)cc1 | > 39 µM (inactive) |
| Cc1ccc(S(=O)(=O)Nc2ccc3c(c2)C(=O)N([C@H](C)CO)C[C@H](C)[C@H](CN(C)Cc2ccc(C(F)(F)F)cc2)O3)cc1 | 13.1 µM |
| CCOc1ccc(-c2nc(CN(c3cccc(OC)c3)S(=O)(=O)c3ccccc3)c(C)o2)cc1 | 6.87 µM |
| COc1ccccc1NS(=O)(=O)c1cc2c3c(c1)CCC(=O)N3CCC2 | 25.4 µM |
| CCc1nc(OCC(=O)Nc2ccc(F)c(Cl)c2)c2ccccc2n1 | > 39 µM (inactive) |
| Cc1nc(OCC(=O)Nc2cccc(F)c2)c2ccccc2n1 | 28.8 µM |
| Cc1nc(OCC(=O)Nc2ccc(Br)cc2F)c2ccccc2n1 | 21 µM |
| Cc1ccc(CNc2nc(-c3ccc(Cl)cc3)nc3ccccc23)cc1 | 37 µM |
| Cc1ccc(Cn2c(CN3CCC(C(=O)NCCCN4CCCC4)CC3)cc3ccccc32)cc1 | 13.4 µM |
| O=C(NCCc1csc(-c2ccccc2)n1)C1CCN(C(=O)c2ccccc2Cl)CC1 | 25.8 µM |
| COc1cccc(CN2CCCCN3[C@@H](CO)[C@@H](c4ccc(-c5ccccc5OC)cc4)[C@@H]3C2)c1 | 16.4 µM and 13.4 µM |
| COc1ccccc1C(=O)Nc1ccc(-c2nc(-c3ccc(C)cc3C)co2)cc1 | 9.34 µM and 18.2 µM |
| O=C(C[C@H]1CC[C@H]2[C@@H](COC[C@@H](O)CN2Cc2cc(F)ccc2F)O1)NCc1ccc(Oc2ccccc2)cc1 | 27.3 µM |
| CN(C)CC(=O)N1[C@H](C#N)[C@H](c2ccc(C#CC3CCCCC3)cc2)[C@@H]1CO | 14.8 µM |
| CN1c2ccc(C3=CCCCC3)cc2[C@@H]2[C@@H](CCN2C(=O)c2ccc3c(c2)OCO3)[C@@H]1CO | 19.3 µM |
| CCCCNC(=O)CCC1N=C2c3ccccc3N=C(SCc3ccccc3Cl)N2C1=O (configuration not stated) | 24.1 µM |
| COc1ccc(N(Cc2nc(-c3ccc(C)cc3)oc2C)S(=O)(=O)c2ccccc2C)cc1 | 31.9 µM |
| Cc1ccc2[nH]c(C(=O)NCc3ccncc3)c(NC(=O)c3ccc(F)cc3)c2c1 | 1.99 µM |
| COc1cccc(-c2nc3c(s2)CN(S(=O)(=O)c2ccc(C)cc2)CC3)c1 | 25.9 µM |

| Compound | AC50 |
| --- | --- |
| CCOc1ccc(-c2nc(CN(c3ccc(OCC)cc3)S(=O)(=O)c3ccccc3)c(C)o2)cc1 | 17.1 µM |
| CCOc1ccccc1N(Cc1nc(-c2ccc(OC)cc2)oc1C)S(=O)(=O)c1cccs1 | 7.45 µM |
| Cc1ccc(-c2coc(-c3ccc(NS(=O)(=O)c4ccc(F)c(Cl)c4)cc3)n2)c(C)c1 | 24.7 µM |
| CCOc1ccc(N(Cc2nc(-c3ccc(OC)cc3)oc2C)S(=O)(=O)c2cccs2)cc1 | 4.79 µM |
| CN(C)CCNC(=O)c1c2c(NCc3cccnc3)ncnc2n2ccccc12 | 32.4 µM |
| O=C1CCc2cc(NC(=O)c3ccccc3F)ccc2N1 | 29.7 µM |
| COc1ccc(-c2ccc3c(c2)[C@@H]2[C@@H](CCN2C(=O)c2cccc(F)c2)[C@H](CO)N3)cc1 | 26.9 µM |
| CN(C)CCNC(=O)c1ccc2onc(-c3coc(C4CC4)n3)c2c1 | 21.3 µM |
| COc1ccc(-c2nc(NC3CCCC3)c3ccccc3n2)cc1 | 35.8 µM |
| Fc1ccccc1CSc1nc(NCc2ccc(Cl)cc2)c2ccccc2n1 | 17.4 µM |
| Oc1cccc(-c2nccn2-c2cccc(-c3ccn[nH]3)c2)c1 | 22.7 µM |
| CN(C[C@H]1N[C@@H](CO)[C@H]1c1ccc(-c2ccc(F)cc2)cc1)C(=O)C1CCC1 | 16.2 µM |
| COc1ccc(-c2nc(NCC3CCN(CCc4ccc(F)cc4)CC3)c3ccccc3n2)cc1 | 12.2 µM |
| CC(C)CC#Cc1ccc([C@@H]2[C@H](CO)N3C(=O)CN(C(=O)Nc4cc(F)ccc4F)C[C@@H]23)cc1 | 12.6 µM and 4.61 µM |
| COc1ccc(Cc2nnc(NC(=O)CC(C)C)s2)cc1 | 11.3 µM |
| N#Cc1ccc(-c2ccc(C3[C@@H]4CN(C(=O)C5CCCCC5)C[C@H]3N4)cc2)cc1 (some centres not stated) | 17.8 µM and 28.4 µM and 27.6 µM |
| O=C(c1ccc(F)cc1)N1CC(=O)N2[C@H](CO)[C@@H](c3ccc(C#CCC4CCCC4)cc3)[C@@H]2C1 | 17.6 µM and 4.58 µM |
| O=C(Cc1ccncc1)N1CCCCN2[C@H](CO)[C@H](c3ccc(C#Cc4ccccc4F)cc3)[C@@H]2C1 | 8.53 µM |
| CN(C)C(=O)c1ccc(-c2ccc3c(c2)[C@H]2[C@H](CCN2C(=O)C2CCCC2)[C@@H](CO)N3C)cc1 | 18.8 µM |
| CC(C)C#Cc1ccc([C@@H]2[C@H](CO)N3C(=O)CN(S(=O)(=O)c4ccccc4)C[C@@H]23)cc1 | > 39 µM (inactive) |
| CCCNC(=O)N1[C@H](CO)[C@@H](c2ccc(-c3ccccc3F)cc2)[C@@H]1C#N | 19.9 µM |
| COCC(=O)N1CCC2(CC1)CN(Cc1nccs1)CCO2 | 17.9 µM |
| Cc1oc(-c2cccc(Cl)c2)nc1CN(c1ccccc1)S(=O)(=O)c1ccccc1 | 6.63 µM |

| Compound | AC50 |
| --- | --- |
| CCC[C@@]1(CCc2ccccc2)CC(=O)C([C@H](CC)c2cccc(NS(=O)(=O)c3ccc(C(F)(F)F)cn3)c2)C(=O)O1 (some centres not stated) | 17.3 µM |
| Cc1cc(C)c(S(=O)(=O)N2CCC3(CC2)NCCN=C3NCc2ccccc2C)cc1C | 6.27 µM |
| COc1ccccc1C#Cc1ccc([C@H]2[C@@H](CO)N3CCCCN(C(=O)C4CCC4)C[C@@H]23)cc1 | 18.8 µM |
| COc1ccc(-c2nc(NC(C)C)c3ccccc3n2)cc1 | > 39 µM (inactive) |
| COc1ccc(-c2ccc([C@H]3[C@H]4CN(Cc5ccccc5)CC(=O)N4[C@H]3CO)cc2)cc1 | 21 µM |
| COc1ccc(-c2nc(NCCCN3CCN(C)CC3)c3ccccc3n2)cc1 | 14.4 µM |
| CC(C)NC(=O)N1CC(=O)N2[C@@H](CO)[C@H](c3ccc(/C=C/c4ccccc4)cc3)[C@@H]2C1 | 16.8 µM |
| Cc1ccc(NC(=O)N2CCN(Cc3nc(-c4cccc(Cl)c4)oc3C)CC2)cc1F | 7.24 µM |
| Cc1ccc(S(=O)(=O)N2CCC3(CC2)NCCN=C3NC2CCCCCC2)c(C)c1 | 14.2 µM |
| COc1cccc(CN2C[C@@H]3N[C@H](C2)C3c2ccc(-c3ccccc3C)cc2)c1 (some centres not stated) | 19 µM and 12.1 µM |
| COc1cccc(-c2nc3c(s2)CN(C(=O)Nc2ccc(C)c(F)c2)CC3)c1 | 13.1 µM |
| CN(C)C(=O)c1ccc(-c2ccc(C3[C@@H]4CN(Cc5ccc6c(c5)OCO6)C[C@H]3N4)cc2)cc1 (some centres not stated) | 17.3 µM |
| O=C(c1cccc(F)c1)N1CCCCN2[C@H](C1)[C@@H](c1ccc(C#CC3(O)CCCC3)cc1)[C@@H]2CO | 11 µM and 29.4 µM |
| Cc1ccc(S(=O)(=O)N2CSC[C@@H]2C(=O)NCCc2csc(-c3ccccc3)n2)cc1 | 12.9 µM |
| COc1ccc(N(Cc2nc(-c3ccccc3OC)oc2C)S(=O)(=O)c2ccc(C)cc2)cc1 | 19.3 µM |
| CCc1ccc(N2CCC(C(=O)NCCc3c[nH]c4ccc(C)cc34)C2=O)cc1 (configuration not stated) | 22.9 µM |
| Cc1oc(-c2cccc(Cl)c2)nc1CN1CCN(C(=O)Nc2ccc(Cl)cc2)CC1 | 22.4 µM |
| Cc1ccc(S(=O)(=O)N2CCC3(CC2)NCCN=C3NCc2ccccc2Cl)cc1C | 12.2 µM |
| Fc1ccc(Nc2nc(SCc3ccccc3Cl)nc3ccccc23)cc1F | 11.3 µM |
| Cc1cc(C)cc(S(=O)(=O)N2CCC3(CC2)NCCN=C3NCc2ccc(F)cc2)c1 | 20.5 µM |
| Cc1ccc(-c2nc(CN(c3ccccc3C)S(=O)(=O)c3cccs3)c(C)o2)cc1 | 9.63 µM |
| CN1C(=O)c2cc(NC(=O)Cc3cccs3)ccc2OC[C@H]2O[C@@H](CC(=O)NCc3ccc(-c4ccccc4)cc3)CC[C@@H]21 | 12.8 µM |
| CCOc1ccccc1N(Cc1nc(-c2ccc(C)cc2)oc1C)S(=O)(=O)c1cccs1 | 9.38 µM |

| Compound | AC50 |
| --- | --- |
| COc1ccc(-c2nc(CN(c3ccccc3)S(=O)(=O)c3cccs3)c(C)o2)cc1OC | 6.84 µM |
| C[C@@H]1CN([C@@H](C)CO)C(=O)c2cccc(NC(=O)NC3CCCCC3)c2O[C@@H]1CN(C)Cc1ccc(C(F)(F)F)cc1 | 25.7 µM |
| CC(C)c1cccc(NC(=O)C[C@H]2CC[C@H]3[C@@H](COc4ccc(NS(=O)(=O)c5ccccc5Cl)cc4C(=O)N3C)O2)c1 | 22.6 µM |
| COc1ccc(Cc2cnc(N)nc2N)cc1OC | 23.2 µM |
| C[C@@H]1CN([C@@H](C)CO)C(=O)Cc2cc(NC(=O)C3CCCCC3)ccc2O[C@@H]1CN(C)Cc1ccc(Cl)c(Cl)c1 | 15.1 µM and 5.01 µM |
| N#Cc1ccc(-c2ccc([C@@H]3[C@@H]4CN(S(=O)(=O)Cc5ccccc5)C[C@H]3N4)cc2)cc1 | 6.55 µM and 15.5 µM |
| COc1ccc(CNC2=NCCNC23CCN(S(=O)(=O)c2ccc(C(C)C)cc2)CC3)cc1 | 19.9 µM |
| CN1c2ccc(-c3ccccc3)cc2[C@H]2[C@H](CCN2C(=O)CC2CC2)[C@@H]1CO | 18.8 µM |
| CCOc1ccccc1N(Cc1nc(-c2ccc(OC)cc2)oc1C)S(=O)(=O)c1ccccc1 | 6.35 µM |
| O=C(Cc1cccnc1)N1CC(=O)N2[C@H](CO)[C@@H](c3ccc(/C=C/c4ccccc4)cc3)[C@@H]2C1 | 19.3 µM |
| CCOc1ccccc1-c1nc(CN(c2ccc(C)cc2)S(=O)(=O)c2cccs2)c(C)o1 | 11.2 µM |
| CN(C)C(=O)c1ccc(-c2ccc3c(c2)[C@@H]2[C@@H](CCN2C(=O)C2CCCC2)[C@@H](CO)N3C)cc1 | 21.1 µM |
| COc1ccc(-c2nc(CSc3nc4c(c(=O)[nH]3)CN(Cc3ccc(F)cc3)CC4)c(C)o2)cc1 | 23.2 µM |
| N#CCSC1=Nc2ccccc2C2=NC(CC(=O)NCc3cccs3)C(=O)N12 (configuration not stated) | 19.6 µM |
| Cc1ccc(CSC2=Nc3ccccc3C3=NC(CCC(=O)NCCc4ccccc4)C(=O)N23)cc1 (configuration not stated) | 30.8 µM |
| COCCCNc1nc(-c2ccc(OC)cc2)nc2ccccc12 | 20 µM |
| CC(C)Cc1ccc(S(=O)(=O)N2CCC3(CC2)NCCN=C3NCc2cccc(F)c2)cc1 | 5.25 µM |
| CC(C)n1cnc2c(NCC3CC3)nc(C3CCN(C(=O)c4cccc(F)c4F)CC3)cc21 | 19.8 µM |
| COc1ccc(-c2nc(NCCCN3CCN(c4ccccc4)CC3)c3ccccc3n2)cc1 | 29.8 µM |
| C[C@@H]1CN([C@@H](C)CO)C(=O)c2cccc(NC(=O)NC3CCCCC3)c2O[C@H]1CN(C)Cc1ccc(C(F)(F)F)cc1 | 16 µM |
| COc1ccc(-c2nc(Nc3ccc(OC)cc3OC)c3ccccc3n2)cc1 | 13.3 µM |
| CCCCC(CC)CNC(=O)CC1Nc2c3ccccc3nc(=S)n2C1=O (configuration not stated) | 17.9 µM |
| OC[C@@H]1Nc2ccc(-c3cccc(F)c3)cc2[C@@H]2[C@H]1CCN2Cc1ccc(F)cc1 | 18.5 µM |
